US20240350510A1, “METHODS AND COMPOSITIONS FOR REDUCING TOLERANCE TO OPIOID […] IBOGAINE AND DERIVATIVES THEREOF” (DemeRx, Inc., priority 2014, published 2024)

Test: Effect of ibogaine on QT interval in treated patients
Type: in vivo, human
Conditions: stated in words only, no values
Description: A prolonged QT interval is a marker of potential Torsades de Pointes, a serious arrhythmia that can result in death. For reasons that are not apparent, this prolongation increases in opioid addicted patients as compared to healthy individuals. […] It is expected that other compounds that share ibogaine's core structure will have a similar prolongation effect on QT interval. See, U.S. Provisional Patent Application No. 61/945,746 filed Feb. 27, 2014 entitled METHOD FOR ACUTE AND LONG-TERM TREATMENT OF DRUG ADDICTION, which application is incorporated by reference in its entirety.
The effect of ibogaine, ibogaine derivative, or a pharmaceutically acceptable salt and/or solvate thereof on QT interval is evaluated in substance-dependent participants in a randomized, placebo-controlled, double-blind trial. Patients are administered 60 mg or 120 mg of the compound and QT interval is measured.

CCC1CC2CC3c4[nH]c5ccc(OC)cc5c4CCN(C2)C13 (stereo not shown) [ibogaine]
prolongation of the treated patient's QT interval: dose dependent prolongation
